The record followed here is patent US20090221559A1 (priority 2005, published 2009).

Read-outs that look alike come from different tables or passages of the source.

The subject of assay [1] is HCV replicon RNA replication in Huh-7 luc/neo (Huh-Luc) cells. The assay can be described thus: HCV replicon assay (stable replicon cell reporter assay, luciferase read-out). The class given is cell-based, HCV type 1b. The protocol:
(§1) The compounds of formula (I) were tested for anti-HCV activity in an assay determining their activity against NS5b polymerase and in an HCV replicon assay
The compounds of the present invention were examined for activity in the inhibition of HCV RNA replication in a cellular assay. […] The cellular assay was based on a bicistronic expression construct, as described by Lohmann et al. (1999) Science vol. 285 pp. 110-113 with modifications described by Krieger et al. (2001) Journal of Virology 75: 4614-4624, in a multi-target screening strategy. In essence, the method was as follows.
The assay utilized the stably transfected cell line Huh-7 luc/neo (hereafter referred to as Huh-Luc). This cell line harbored an RNA encoding a bicistronic expression construct comprising the wild type NS3-NS5B regions of HCV type 1b translated from an Internal Ribosome Entry Site (IRES) from encephalomyocarditis virus (EMCV), preceded by a reporter portion (FfL-luciferase), and a selectable marker portion (neo^R, neomycine phosphotransferase). The construct was bordered by 5′ and 3′ NTRs (non-translated regions) from HCV type 1b. Continued culture of the replicon cells in the presence of G418 (neo^R) was dependent on the replication of the HCV RNA. The stably transfected replicon cells that expressed HCV RNA, which replicated autonomously and to high levels, encoding inter alia luciferase, were used for screening the antiviral compounds.
The replicon cells were plated in 384 well plates in the presence of the test and control compounds which were added in various concentrations. Following an incubation of three days, HCV replication was measured by assaying luciferase activity (using standard luciferase assay substrates and reagents and a Perkin Elmer ViewLux™ ultraHTS microplate imager). […] The inhibitory activity of the compound on luciferase activity was monitored on the Huh-Luc cells, enabling a dose-response curve for each test compound.
For orientation: In antiviral work, replicon cells carry a viral genome segment that copies itself.

In assay [2] the target is T1, HCV NS5B polymerase (His-tagged, C-terminal 21 amino acid deleted NS5B, HC-J4) (Hepatitis C virus genotype 1b, UniProt O92972).
T1 construct: The cDNA encoding NS5B amino acid 1-570 (HC-J4, genotype 1b); His tag (His6, from pET-21b) (C); made in house; host or cells: E. coli BL21 (DE3)
T1 sequence (O92972 2417-3000, looked up, stated change not applied): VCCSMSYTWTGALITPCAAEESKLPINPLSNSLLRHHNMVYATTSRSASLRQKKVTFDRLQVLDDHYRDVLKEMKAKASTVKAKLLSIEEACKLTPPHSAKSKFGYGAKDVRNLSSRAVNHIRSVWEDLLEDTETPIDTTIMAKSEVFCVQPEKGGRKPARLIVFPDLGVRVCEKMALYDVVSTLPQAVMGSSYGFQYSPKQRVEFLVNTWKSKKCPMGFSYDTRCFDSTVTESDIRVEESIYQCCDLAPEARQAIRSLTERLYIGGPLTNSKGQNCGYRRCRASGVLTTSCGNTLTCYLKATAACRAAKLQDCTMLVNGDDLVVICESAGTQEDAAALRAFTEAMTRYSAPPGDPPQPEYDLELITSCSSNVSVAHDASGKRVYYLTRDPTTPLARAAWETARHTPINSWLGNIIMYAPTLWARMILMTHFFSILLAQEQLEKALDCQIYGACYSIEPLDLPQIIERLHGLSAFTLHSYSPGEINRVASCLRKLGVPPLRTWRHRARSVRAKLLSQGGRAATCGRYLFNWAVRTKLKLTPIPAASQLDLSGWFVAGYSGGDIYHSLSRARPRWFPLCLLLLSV
The assay can be described thus: NS5b polymerase assay (biochemical RdRp assay, 3H-GTP incorporation, SPA beads). Further details: species or system HCV genotype 1b. The protocol: as §1
The cDNA encoding NS5B amino acid 1-570 (HC-J4, genotype 1b, pCV-J4L6S, genebank accession number AF054247) was subcloned into the Nhe I and Xho I restriction sites of pET-21b. Expression of the subsequent His-tagged C-terminal 21 amino acid deleted NS5B was performed as follows:
Following transformation in BL21 (DE3) competent cells, bacterial cells were grown in 22 liter LB/Amp media until to reach OD600=0.4-0.6. Protein expression was induced by addition of IPTG 0.4 mM, supplemented with 10 μM MgCl2, and incubated for 14-16 hrs at 20° C. Cells were harvested, resuspended in lysis buffer (20 mM Tris-HCl pH=7.5, 0.3 M NaCl, 10% glycerol, 0.1% NP40, 4 mM MgCl2, 14 mM beta-mercaptoethanol, with tablet of EDTA-free protease cocktail inhibitors) and lysed by sonification. The cell lysate was cleared by high-speed centrifugation (20K×g for 30 min), captured on Ni-NTA beads for 70 min at 4° C., and eluted with 25 mM Hepes pH 7.5, 0.5 M NaCl, 10% glycerol, 14 mM BME, 500 mM imidazole. The eluent was dialysed against 25 mM Hepes pH 7.5, 10% glycerol, 50 mM NaCl, 14 mM BME, after which the protein was further purified by heparin chromatography using the same buffer with 1 M NaCl for elution. Fractions containing pure protein were collected, dialyzed against storage buffer 25 mM Hepes pH=7.5, 300 mM NaCl, 10% glycerol, 14 mM BME), and flash-freezed in liquid nitrogen.
Measurement of HCV NS5B polymerization activity was performed by evaluating the amount of radiolabeled GTP incorporated by the enzyme in a newly synthesized RNA using heteropolymeric RNA template/primer. The highthroughput RdRp assay was carried out in 384-well plates using 200 nM enzyme, 0.1 μCi of ^3H GTP, 5 mM MgCl2, 600 nM GTP, 30 nM PolyC, 300 nM 5′-biotinylated oligo(rG13)/poly(rC) in 20 mM Tris pH 7.5, 21 mM KCl, 2.5 mM DTT, 16.7 mM NaCl and 0.17 mM EDTA. Test compounds were dissolved in dimethylsulfoxide. The test compounds were added to the preformed polymerase-template complex, and incubated at room temperature (RT) for 15 min before the addition of NTPs. The 30-μl reaction was terminated after 2 h at 25° C. upon addition of 30-μl PVT-SPA beads (Amersham Biosciences RPNQ0009, 5 mg/ml in 0.5 M EDTA).

Where [3] appears, read: Hepatitis C virus, Huh-7, 72 h, read-out: Replicon Assay EC50, Huh-Luc cells, three days incubation, luciferase activity.
Setting [4] is: NS5B Polymerase Assay IC50, 200 nM enzyme, 3H-GTP incorporation, 2 h at 25° C.
[5] abbreviates: Hepatitis C virus, Huh-7, 72 h, read-out: Replicon Assay EC50 (μM), Huh-Luc cells, incubation of three days, luciferase activity.
The mark [6] stands for this setting: NS5B Polymerase Assay IC50 (μM).
Where [7] appears, read: Huh-Luc cells, three days incubation, luciferase activity, read-out: Replicon Assay EC50.
[8] abbreviates: 200 nM enzyme, 3H-GTP incorporation, 2 h at 25° C., read-out: NS5B Polymerase Assay IC50.

One may read the EC50 as the concentration needed to bring the measured effect to its halfway point. By IC50 is commonly meant the point on the concentration scale where inhibition reaches its midpoint. Turning to `COc1ccc(C2C3=C(CC(C)(C)CC3=O)Nc3ccccc3N2C(C)=O)cc1OC` (centres unmarked) [compound 119], the EC50 in assay [1] (setting [3]) is above 32 µM. This molecule displayed an IC50 in assay [2] (setting [4]) above 42.7 µM. With `CCOc1ccc(C2C3=C(CC(C)(C)CC3=O)Nc3ccccc3N2C(=O)C(F)(F)F)cc1` (centres unmarked) [compound 2], the EC50 in assay [1] (setting [3]) amounted to 26.5 µM. This molecule also displayed an IC50 in assay [2] (setting [4]) above 42.7 µM.

For the molecule `CC(=O)N1c2ccccc2NC2=C(C(=O)CC(C)(C)C2)C1c1ccccc1OCc1ccccc1` (centres unmarked) [compound 44], the EC50 in assay [1] (read-out: Replicon Assay EC50, Huh-Luc cells, three days incubation, luciferase activity) is 9.54 µM. For the same molecule, in assay [2] (setting [4]), the IC50 is above 42.7 µM.

With `COc1ccc(C2Nc3ccccc3NC3=C2C(=O)CC(c2ccc(Cl)cc2)C3)cc1OC` (centres unmarked) [compound 352], the EC50 in assay [1] (setting [5]) was found to be 9.61 µM. In assay [2] (setting [6]), the IC50 is above 42.7 µM. Consider `CC1(C)CC(=O)C2=C(C1)Nc1ccccc1NC2c1ccccc1OCc1ccccc1` (centres unmarked) [compound 425], for which the EC50 in assay [1] (setting [5]) worked out at 13.2 µM. The molecule further gave an IC50 in assay [2] (setting [6]) above 42.7 µM.

With `COc1ccc(C2CC(=O)C3=C(C2)Nc2ccccc2NC3c2cc(OC)c(OC)cc2Br)cc1` (centres unmarked) [compound 400], the EC50 in assay [1] (setting [5]) came out at 3.28 µM. The same molecule displayed an IC50 in assay [2] (setting [6]) above 42.7 µM. The corresponding values for `COc1ccc(C2CC(=O)C3=C(C2)Nc2ccccc2NC3c2cc(Br)ccc2OC)cc1OC` (centres unmarked) [compound 404] are 3.24 µM and above 42.7 µM. The corresponding values for `O=C1CC(c2ccccc2)CC2=C1C(c1cccc(OCc3ccccc3)c1)Nc1ccccc1N2` (centres unmarked) [compound 373] are 9.42 µM and above 42.7 µM.

Take `COc1cccc2c1NC1=C(C(=O)CC(C)(C)C1)C(c1ccc(Cl)cc1Cl)N2C(C)=O` (centres unmarked) [compound 320]: the EC50 in assay [1] (setting [3]) stood at 33 µM. Further, half-maximal inhibition in assay [2] (setting [4]) (IC50) was put at 6.77 µM. Turning to `CC1(C)CC(=O)C2=C(C1)Nc1ccccc1NC2c1cccc(Oc2ccccc2Br)c1` (centres unmarked) [compound 446, 11-[3-(2-bromophenoxy)phenyl]-3,3-dimethyl-2,3,4,5,10,11-hexahydro-1H-dibenzo[b,e][1,4]diazepin-1-one], the concentration for a half-maximal effect (EC50) in assay [1] (setting [5]) came to 4.12 µM. For the same molecule, in assay [2] (setting [6]), the 50% inhibitory concentration (IC50) is above 133 µM. As for `CCCCCOc1ccc(C2C3=C(CC(C)(C)CC3=O)Nc3ccccc3N2C(C)=O)cc1` (centres unmarked) [compound 102], the EC50 in assay [1] (setting [3]) was above 32 µM. The IC50 in assay [2] (setting [4]) was above 42.7 µM.

As to `CC(=O)N1c2ccccc2NC2=C(C(=O)CC(C)(C)C2)C1c1ccc(F)cc1` (centres unmarked) [compound 4], the EC50 in assay [1] (setting [3]) is above 32 µM. Besides, in assay [2] (setting [4]), the IC50 is above 42.7 µM. As to `CC1(C)CC(=O)C2=C(C1)Nc1cc(C(=O)c3ccccc3)ccc1NC2c1ccccc1Cl` (centres unmarked) [compound 463], in assay [1] (setting [5]), the EC50 turned out to be 7.43 µM. The IC50 in assay [2] (setting [6]) is above 33.3 µM. In the case of `CCCCCC(=O)N1c2ccccc2NC2=C(C(=O)CC(c3ccc(OC)cc3)C2)C1c1ccc(Cl)cc1` (centres unmarked) [compound 232], the EC50 in assay [1] (setting [7]) stood at 22.6 µM. Besides, the IC50 in assay [2] (setting [8]) was above 33.3 µM. For `CC(=O)N1c2ccccc2NC2=C(C(=O)CC(c3ccccc3)C2)C1c1ccc(C)cc1` (mixture of isomers) [compound 199], the EC50 in assay [1] (setting [7]) stood at 11.5 µM. In addition, in assay [2] (setting [8]), the IC50 was above 42.7 µM. For the molecule `CC(=O)N1c2cccc(C#N)c2NC2=C(C(=O)CC(C)(C)C2)C1c1ccc(Cl)cc1Cl` (centres unmarked) [compound 316], the EC50 in assay [1] (setting [3]) was 15.4 µM. Further, half-maximal inhibition in assay [2] (setting [4]) (IC50) required 6.97 µM.

Take `CC(=O)N1c2ccccc2NC2=C(C(=O)CC(C)(C)C2)C1c1ccc(OCc2ccccc2)c(Cl)c1` (single isomer, unassigned) [compound 303, 10-acetyl-11-[4-benzyloxy-3-chlorophenyl]-3,3-dimethyl-2,3,4,5,10,11-hexahydro-1H-dibenzo[b,e][1,4]diazepin-1-one]: the midpoint of inhibition in assay [2] (setting [4]), the IC50, lay at 31.5 µM. For `CC1(C)CC(=O)C2=C(C1)Nc1ccccc1N(C(=O)NCc1ccccc1)C2c1ccc(Cl)cc1Cl` (centres unmarked) [compound 159], the EC50 in assay [1] (setting [7]) was found to be 9.59 µM. Same read-out and setting: the figure for `COc1ccc(C2C3=C(CC(C)(C)CC3=O)Nc3ccccc3N2C(=O)c2ccccc2)cc1OCc1ccccc1` (centres unmarked) [compound 51] is 7.66 µM. On to `CCCCCC(=O)N1c2ccccc2NC2=C(C(=O)CC(c3ccco3)C2)C1c1cccc([N+](=O)[O-])c1` (centres unmarked) [compound 290], for which the IC50 in assay [2] (setting [4]) is above 42.7 µM. On to `O=C1CC(c2cccc([N+](=O)[O-])c2)CC2=C1C(c1ccc(Cl)cc1)N(C(=O)C(F)(F)F)c1ccccc1N2` (mixture of isomers) [compound 214], for which the IC50 in assay [2] (setting [8]) was above 42.7 µM. As for `CC1(C)CC(=O)C2=C(C1)Nc1ccccc1N(C(=O)c1ccccc1)C2c1ccc(-c2cccc([N+](=O)[O-])c2)o1` (centres unmarked) [compound 272], in assay [2] (setting [4]), the IC50 is above 42.7 µM. Take `CCC(=O)N1c2ccccc2NC2=C(C(=O)CC(c3cccc([N+](=O)[O-])c3)C2)C1c1ccc(Cl)cc1` (mixture of isomers) [compound 211]: the IC50 in assay [2] (setting [8]) was above 42.7 µM. `CC1(C)CC(=O)C2=C(C1)Nc1ccccc1N(C(=O)Cc1ccccc1)C2c1ccc(-c2ccc([N+](=O)[O-])cc2)o1` (centres unmarked) [compound 238]: in assay [2] (setting [4]), the IC50 is above 42.7 µM. With `CC1(C)CC(=O)C2=C(C1)Nc1ccccc1N(C(=O)NCc1ccoc1)C2c1ccc(Cl)cc1Cl` (centres unmarked) [compound 158], in assay [1] (setting [7]), the EC50 turned out to be 31.1 µM. As for `Cc1ccc(C2C3=C(CC(c4cccc(Cl)c4)CC3=O)Nc3ccccc3N2C(=O)C(F)(F)F)cc1` (centres unmarked) [compound 225], the IC50 in assay [2] (setting [8]) was above 42.7 µM. Consider `CC1(C)CC(=O)C2=C(C1)Nc1ccccc1N(C(=O)C(F)(F)F)C2/C(Br)=C/c1ccccc1` (centres unmarked) [compound 256], for which, in assay [1] (setting [3]), the EC50 was found to be 3.98 µM.

For the molecule `CC(C)C(=O)N1c2ccccc2NC2=C(C(=O)CC(C)(C)C2)C1c1ccc([N+](=O)[O-])s1` (centres unmarked) [compound 239], the IC50 in assay [2] (setting [4]) was above 42.7 µM. In turn, `O=C1C[C@@H](c2ccc(Cl)cc2)CC2=C1[C@H](c1cc3c(cc1[N+](=O)[O-])OCO3)Nc1ccccc1N2` [compound 475] registered an IC50 in assay [2] (setting [6]) above 42.7 µM.

Molecule `COc1ccc(OC)c(C2Nc3ccccc3NC3=C2C(=O)CC(c2ccccc2)C3)c1` (centres unmarked) [compound 351] had an IC50 in assay [2] (setting [6]) above 42.7 µM. On the same count and under the same terms, the figure for `COc1ccc(C2CC(=O)C3=C(C2)Nc2ccccc2NC3c2ccccc2OC(C)C)cc1` (centres unmarked) [compound 333] is above 42.7 µM. `CC1(C)CC(=O)C2=C(C1)Nc1ccccc1N(C(=O)Cc1ccccc1)C2c1ccc(Br)cc1` (centres unmarked) [compound 95] showed a half-maximal inhibitory concentration (IC50) in assay [2] (setting [4]) above 33.3 µM. For `O=C1C[C@@H](c2ccc(Cl)cc2)CC2=C1[C@H](c1cc3c(cc1Br)OCO3)Nc1ccccc1N2` [compound 479], the IC50 in assay [2] (setting [6]) is above 42.7 µM. Same read-out and setting: then `COc1ccc(C2CC(=O)C3=C(C2)Nc2ccccc2NC3c2c(F)cccc2Cl)cc1` (centres unmarked) [compound 334], with above 42.7 µM.
